From publication PMC7144376, “Antiviral Effects of Novel 2-Benzoxyl-Phenylpyridine Derivatives” (Molecules, 2020) come the findings set out here.

Bounds are passed on as bounds.

Series [1] is described as follows: Cytotoxicity on uninfected Hep-2 cells (MTT, 48 h). The format is cell-based. The settings on record: human, read-out: CC50 (reduce cell viability by 50%), CVB3 host cells. The method, then: (§1) Human laryngeal carcinoma cells (Hep-2) and human cervical carcinoma cells (HeLa) were maintained in DMEM (Gibco) supplemented with 10% fetal bovine serum (FBS; Gibco), 100 U/mL penicillin and streptomycin, and 2 mM L-glutamine.
(§2) The antiviral activities of compounds against CVB3 and ADV7 were determined by measuring their inhibition of virus-induced CPEs in acutely infected Hep-2 and HeLa cells, respectively. Confluent cell monolayers in 96-well plates were infected with 100 TCID50 of CVB3 or ADV7 for 1.5 h at 37 °C, inocula were aspirated, and the cells then were incubated with various concentrations of compounds at 37 °C, 5% CO2, for 48 h. CPEs were observed by microscopy and the viability of cells was determined using MTT assays. The concentrations of test compounds required to achieve 50% protection from virus-induced cytopathogenicity (EC50 values) were determined. Adverse effects of tested compounds on host cells were also assessed using the MTT method after exposing uninfected cells to various concentrations of test compounds for 48 h at 37 °C. The CC50 values of compounds were calculated using SPSS software and selectivity indices were the ratio of CC50:EC50. Each experiment was performed in triplicate and at least three times, independently.

A short description of series [2]: Cytotoxicity on uninfected HeLa cells (MTT, 48 h). The format is cell-based. The settings on record: human, read-out: CC50 (reduce cell viability by 50%), ADV7 host cells. The method, then: as §1, §2
The subject of the next series is CVB3. Put plainly: Inhibition of CVB3-induced cytopathic effects in Hep-2 cells (MTT). The format is cell-based, Coxsackievirus B3. The settings on record: for EC50: Enterovirus B, 100 TCID50 CVB3, 48 h, MTT, read-out: EC50 (50% protection from virus-induced cytopathogenicity), CVB3. The method, then: (§3) Figure 1 Antiviral activities of novel 2-benzoxyl-phenylpyridine derivatives against CVB3 and ADV7. […] Hep-2 or HeLa cells were infected with 100 TCID50 of CVB3 or ADV7 for 1.5 h at 37 °C. Then, the inocula were aspirated and the cells were incubated with various concentrations of test compounds for 48 h. Cell viability was determined using the MTT assay. (b) Images showing the morphology of Hep-2 and HeLa cells treated with 120 μM W-9, 160 μM W-13, or 160 μM W-15 (magnification, 20×).
as §2
In general terms: Cytopathic effects are the visible damage that an infection or toxin causes in cultured cells.

The next series deals with ADV7. Description: Inhibition of ADV7-induced cytopathic effects in HeLa cells (MTT). The note with it: for EC50: Human mastadenovirus B, 100 TCID50 ADV7, 48 h, MTT, read-out: EC50 (50% protection from virus-induced cytopathogenicity), ADV7. The format is cell-based, adenovirus type 7. The method, then:
as §3, §2

As to `O=C(Oc1ccccc1-c1ccccn1)c1ccccc1` [W1], the CC50 at 48 h in series [1] came to 594 ± 49.1 µM; in series [2], 1060 ± 93.5 µM.

For the molecule `COc1ccc(-c2ccccn2)c(OC(=O)c2ccccc2)c1` [W2], the CC50 at 48 h in series [1] was 240 ± 22 µM. Besides, in the series on CVB3, the “SI (CC50/EC50), CVB3” value came to 2.4; the “inhibitory activity against CVB3 infection (in words)” value was “significant inhibitory activities”; the EC50 is 101 ± 14.1 µM. Further, the CC50 at 48 h in series [2] is above 656 µM. Moreover, in the series with ADV7, the “SI (CC50/EC50), ADV7” value is given as above 12.9; the “inhibitory activity against ADV7 infection (in words)” value is given as “significant inhibitory activities”; the EC50 came out at 50.8 ± 16.7 µM.

On to `Cc1cccc(OC(=O)c2ccccc2)c1-c1ccccn1` [W3], for which the CC50 at 48 h in series [1] was found to be 630 ± 39.4 µM; in series [2], 921 ± 59.5 µM. Further, the “SI (CC50/EC50), CVB3” value in the series on CVB3 came to 6.0. Further, the “SI (CC50/EC50), ADV7” value in the series with ADV7 was 9.8.

Take `Cc1cccnc1-c1ccc(Cl)cc1OC(=O)c1ccccc1` [W4]: the CC50 at 48 h in series [1] was determined as 222 ± 24.1 µM. Besides, in the series with CVB3, the “SI (CC50/EC50), CVB3” value is 4.1; the “inhibitory activity against CVB3 infection (in words)” value is on record as “selective antiviral activities against CVB3”; the EC50 turned out to be 54.4 ± 11.1 µM. The half-maximal cytotoxic concentration (CC50) at 48 h in series [2] amounted to 797 ± 45.7 µM.

Take `COc1ccc(OC(=O)c2ccccc2)c(-c2ncccc2C)c1` [W5]: the figures for the CC50 at 48 h in series [1] and in series [2] were 33.5 ± 9.4 µM and 38.9 ± 18.8 µM, respectively.

For the molecule `Cc1ccc(OC(=O)c2ccccc2)c(-c2ncccc2C)c1` [W6], the CC50 at 48 h in series [1] was found to be 244 ± 30.4 µM. In addition, in the series with CVB3, the “SI (CC50/EC50), CVB3” value was 2.8; the “inhibitory activity against CVB3 infection (in words)” value is “significant inhibitory activities”; the concentration giving a half-maximal response (EC50) stood at 88.4 ± 19.5 µM. For the same molecule, in series [2], the cytotoxic concentration (CC50) at 48 h is 326 ± 21.8 µM. Also, in the series on ADV7, the “SI (CC50/EC50), ADV7” value turned out to be 4.9; the “inhibitory activity against ADV7 infection (in words)” value is given as “significant inhibitory activities”; the EC50 is 66 ± 20.1 µM.

For the molecule `Cc1cccnc1-c1sccc1OC(=O)c1ccccc1` [W7], the CC50 at 48 h in series [1] is 350 ± 28.8 µM; in series [2], 1030 ± 63.1 µM.

`Cc1cccnc1-c1ccc(F)cc1OC(=O)c1ccccc1` [W8]: the CC50 at 48 h in series [1] stood at 354 ± 49.5 µM. Moreover, in the series on CVB3, the “SI (CC50/EC50), CVB3” value is 4.4; the “inhibitory activity against CVB3 infection (in words)” value is given as “selective antiviral activities against CVB3”; the EC50 turned out to be 80.1 ± 15 µM. Besides, the CC50 at 48 h in series [2] was found to be 843 ± 37.1 µM.

Turning to `O=C(Oc1cc(Br)ccc1-c1ccccn1)c1ccccc1` [W10], the 50% cytotoxic concentration (CC50) at 48 h in series [1] stood at 184 ± 26.3 µM. Further, in the series with CVB3, the “SI (CC50/EC50), CVB3” value came to 5.0; the “inhibitory activity against CVB3 infection (in words)” value is given as “significant inhibitory activities”; the concentration for a half-maximal effect (EC50) is 36.7 ± 15.8 µM. In addition, the CC50 at 48 h in series [2] came out at 249 ± 23.2 µM. In the series on ADV7, the “SI (CC50/EC50), ADV7” value came out at 4.9; the “inhibitory activity against ADV7 infection (in words)” value is listed as “significant inhibitory activities”; the 50% effective concentration (EC50) stood at 51.1 ± 20.1 µM.

Regarding `O=C(Oc1ccsc1-c1ccccn1)c1ccccc1` [W11], the cytotoxic concentration (CC50) at 48 h was 378 ± 19.2 µM in series [1] and 1020 ± 72.6 µM in series [2].

For `Cc1cccnc1-c1ccc(Br)cc1OC(=O)c1ccccc1` [W12], the CC50 at 48 h in series [1] worked out at 128 ± 17.9 µM. Further, the CC50 at 48 h in series [2] is 211 ± 14.7 µM. Also, in the series with ADV7, the “SI (CC50/EC50), ADV7” value came out at 3.3; the “inhibitory activity against ADV7 infection (in words)” value was “selective anti-ADV7 activity”; the EC50 is 63.6 ± 16.6 µM.

With `CC(=O)c1ccc(-c2ccccn2)c(OC(=O)c2ccccc2)c1` [W14], the half-maximal cytotoxic concentration (CC50) at 48 h in series [1] turned out to be 490 ± 26.8 µM. In the series on CVB3, the “SI (CC50/EC50), CVB3” value is 5.6; the “inhibitory activity against CVB3 infection (in words)” value is given as “significant inhibitory activities”; the EC50 is 87.1 ± 21.1 µM. Besides, the CC50 at 48 h in series [2] stood at 979 ± 27.8 µM. In the series with ADV7, the “SI (CC50/EC50), ADV7” value is given as 13.0; the “inhibitory activity against ADV7 infection (in words)” value is recorded as “significant inhibitory activities”; the EC50 amounted to 75.4 ± 20.2 µM.

Broadly, the CC50 is the concentration at which the toxic effect on the cells reaches its halfway point. The EC50 is the concentration giving half of the maximal effect.
